What all share (format): in vivo
Series [1] deals with horse. The series can be described thus: Heat lamp equine analgesia model. The settings on record: horse 1000 lbs, 0.2 mg/kg (100 mg) intravenously. The method, then:
A horse (1000 lbs) in was administered guanabenz at a dose of 0.2 mg/kg (100 mg) intravenously at time point 0 (see FIG. 2). […] Note also that this response is maintained at full intensity for approximately 30 minutes and declines thereafter, and returns to control values by 6 hrs post administration. The solid circles (● - - - ●) show the increasing control latency in our heat lamp equine analgesia model after administration of guanabenz at indicated zero time.

The nature of series [2]: Blood glucose, urine glucose, urine production and urine specific gravity after intravenous administration. To be noted: horse about 1000 lbs, 0.2 mg/kg (100 mg) intravenously. The method, then:
Referring now to FIG. 3, a horse (about 1000 lbs) was administered guanabenz at a dose of 0.2 mg/kg (100 mg) intravenously at time point 0. […] The solid circles (● - - - ●) show blood glucose levels after rapid intravenous administration of guanabenz. Note also the increase in urine glucose levels after the administration of guanabenz. The open circles (◯-◯) show the corresponding urinary concentrations of glucose after this administration.
In FIG. 3b, note how the dose of 100 mg of guanabenz yields an increase in urine production as indicated by the increase in volume of urine collected. The solid circles (● - - - ●) show volume of urinary output after rapid intravenous administration of guanabenz. Note also in FIG. 3c, the decrease in specific gravity of the urine after the administration of the guanabenz. The solid circles (● - - - ●) show the corresponding urinary specific gravity values after this administration.

The subject of series [3] is horse. As to the kind of experiment: Sedation / head ptosis response in the standing horse after intravenous administration. Here is the method:
As used herein by “rapid onset” is meant to include the time interval from administration of the active, e.g., guanabenz acetate, until the drug begins to take effect and produce the intended response, e.g., sedation and/or tranquilization and /or analgesia. For the compositions disclosed herein, this time interval typically ranges from between about 1 minute to about 30 minutes. As one of skill in the art can appreciate, the length of time for onset of action can vary, e.g., depending upon the route of administration, the species, age, size, and health status of the animal and the like. In the adult horse, for example, the clinical signs of sedation will begin to appear within 1–3 minutes following a single intravenous administration of about 100 mg of guanabenz or guanabenz acetate.
The term “analgesia” or “analgesic” is meant to include any conscious relief from a painful stimulus in an animal. In general, an analgesic is an agent that alleviates pain or reduces the sensation of pain without causing loss of consciousness. The term “long lasting” is generally meant to include the time interval from the onset of effect of the active until the effect has waned to a subclinical level. Thus, the establishment of this time interval is subjective but is readily ascertainable in the hands of the skilled artisan. Of course the duration of action of the active can vary, e.g., depending upon the route of administration, the species, age, size, and health status of the animal and the like. In the adult horse, for example, the clinical signs of sedation will begin to appear within 1–3 minutes following a single intravenous administration of about 100 mg of guanabenz or guanabenz acetate and the duration of action is up to about 4 hours.
In one embodiment, the present invention provides the surprising discovery that guanabenz acetate, after a single intravenous dose of about 0.2 milligrams per kilogram per horse, produces a rapid onset of sedation and/or, tranquilization and/or analgesia in the standing horse.
The solid circles (● - - - ●) show head ptosis measured as cm above ground level after rapid intravenous administration of guanabenz.

The mark [4] stands for this setting: standing horse, single intravenous dose of about 0.2 mg/kg.

Structures are written as SMILES.

As for `N=C(N)N/N=C/c1c(Cl)cccc1Cl` [guanabenz, 1-[2,6-dichlorobenzylidine-amino]-3-guanidine], in the series with horse [1], the “onset of analgesia response (desensitization to the heat lamp), FIG. 2” value was “very rapid onset” and the “time for which the analgesia response is maintained at full intensity” value was “approximately 30 minutes”. Further, the “time at which the analgesia response returns to control values” with horse [1] (post administration) was no more than 6 h. Moreover, in series [2], the “blood glucose levels, FIG. 3a” value is on record as “transient increase”; the “specific gravity of the urine, FIG. 3c” value is given as “decrease”; the “urine glucose levels, FIG. 3a” value is listed as “increase”; the “urine production (volume of urine collected), FIG. 3b” value is reported as “increase”. Besides, the “head ptosis response (cm above ground level), FIG. 1” value with horse [3] (horse about 1000 lbs, 0.2 mg/kg (100 mg) intravenously) is reported as “very rapid onset”.

In the case of `COC(=O)[C@@H]1[C@H]2C[C@H]3c4[nH]c5ccccc5c4CCN3C[C@@H]2CC[C@@H]1O` [yohimbine], in the series on horse [3] (horse given guanabenz 100 mg i.v., yohimbine 60 mg intravenously), the “reversal of guanabenz tranquilization and sedation (head ptosis), FIG. 1” value is “rapid reversal”. Besides, the “reversal of guanabenz acetate sedation and head ptosis response” value with horse [3] (horse, guanabenz acetate about 0.2 mg/kg i.v., antagonist given intravenously) was “rapidly reversible”.

As for `N=C(N)N/N=C/c1c(Cl)cccc1Cl` [guanabenz acetate], in the series on horse [3] (setting [4]), the “duration for which sedation and head ptosis are maintained” value was “up to four hours”; the “onset of profound sedation and head ptosis” value is listed as “within one minute”.
